According to patent US20240108006A1, “PESTICIDALLY ACTIVE HETEROAROMATIC COMPOUNDS” (SYNGENTA CROP PROTECTION AG, priority 2021, published 2024):

What was measured:
Myzus persicae [1] = experiment: Example B5: Myzus persicae (green peach aphid), feeding/contact activity; format: in vivo; conditions: 144 h, application rate of 200 ppm, 6 days after infestation
Experimental: Example B5: Myzus persicae (Green Peach Aphid):Feeding/Contact Activity
Sunflower leaf discs were placed onto agar in a 24-well microtiter plate and sprayed with aqueous test solutions prepared from 10,000 ppm DMSO stock solutions. After drying, the leaf discs were infested with an aphid population of mixed ages. The samples were assessed for mortality 6 days after infestation.

Euschistus heros = experiment: Example B3: Euschistus heros (neotropical brown stink bug), soybean leaves, N2 nymphs; format: in vivo; conditions: 120 h, application rate of 200 ppm, 5 days after infestation, read-out: control in at least one of the two categories (mortality or growth inhibition)
Experimental: Example B3: Euschistus heros (Neotropical Brown Stink Bug)
Soybean leaves on agar in 24-well microtiter plates were sprayed with aqueous test solutions prepared from 10,000 ppm DMSO stock solutions. After drying the leaves were infested with N2 nymphs. The samples were assessed for mortality and growth inhibition in comparison to untreated samples 5 days after infestation.
The following compounds gave an effect of at least 80% control in at least one of the two categories (mortality or growth inhibition) at an application rate of 200 ppm: […]

[2] = tested on: Frankliniella occidentalis; experiment: Example B4: Frankliniella occidentalis (western flower thrips), feeding/contact activity; format: in vivo; conditions: 168 h, application rate of 200 ppm, 7 days after infestation
Experimental: Example B4: Frankliniella occidentalis (Western Flower Thrips):Feeding/Contact Activity
Sunflower leaf discs were placed on agar in 24-well microtiter plates and sprayed with aqueous test solutions prepared from 10,000 DMSO stock solutions. After drying the leaf discs were infested with a Frankliniella population of mixed ages. The samples were assessed for mortality 7 days after infestation.

Diabrotica balteata = experiment: Example B2: Diabrotica balteata (corn root worm), maize sprouts, L2 larvae; format: in vivo; conditions: 96 h, application rate of 200 ppm, 4 days after infestation, read-out: control in at least one of the two categories (mortality or growth inhibition)
Procedure, shortened: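 Maize sprouts on agar sprayed with aqueous test solutions made from 10,000 ppm DMSO stocks, dried, then infested with 6 to 10 L2 larvae per well. Mortality and growth inhibition assessed versus untreated samples 4 days after infestation; application rate 200 ppm.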

Spodoptera littoralis = experiment: Example B9: Spodoptera littoralis (Egyptian cotton leaf worm), cotton leaf discs, L1 larvae; format: in vivo; conditions: foliar, 72 h, application rate of 200 ppm, 3 days after infestation, read-out: control in at least one of the three categories (mortality, anti-feedant effect, or growth inhibition)
Procedure, shortened: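 Cotton leaf discs on agar sprayed with aqueous test solutions from 10,000 ppm DMSO stocks, dried, then infested with five L1 larvae. Mortality, anti-feeding and growth inhibition scored against untreated samples 3 days after infestation.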

Plutella xylostella = experiment: Example B8: Plutella xylostella (diamond back moth), artificial diet 24-well, eggs; format: in vivo; conditions: 192 h, application rate of 200 ppm, 8 days after infestation, read-out: effect in at least one of the two categories (mortality or growth inhibition)
Procedure, shortened: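 Artificial diet in 24-well plates treated with aqueous dilutions of DMSO stock (10,000 ppm stock) and dried, then infested with Plutella eggs. Mortality and growth inhibition scored versus untreated samples 8 days after infestation.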

Myzus persicae [3] = experiment: Example B6: Myzus persicae (green peach aphid), systemic activity, pea seedlings; format: in vivo; conditions: 144 h, test rate of 24 ppm, 6 days after placing seedlings into test solutions
Experimental: Example B6: Myzus persicae (Green Peach Aphid). Systemic Activity
Roots of pea seedlings infested with an aphid population of mixed ages were placed directly into aqueous test solutions prepared from 10,000 DMSO stock solutions. The samples were assessed for mortality 6 days after placing seedlings into test solutions.

Myzus persicae [4] = experiment: Example B7: Myzus persicae (green peach aphid), intrinsic activity, sucrose solution 24-well; format: in vivo; conditions: 120 h, application rate of 12.5 ppm, 5 days after infestation, read-out: control (mortality)
Procedure, shortened: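 Compounds from 10,000 ppm DMSO stocks were mixed into sucrose solution in wells at a rate of 12.5 ppm. Aphid-infested pea seedlings were placed on a Parafilm membrane over the solution, so aphids fed through it. Mortality was scored 5 days after infestation.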

Chilo suppressalis = experiment: Example B1: Chilo suppressalis (striped rice stemborer), artificial diet, L2 larvae; format: in vivo; conditions: 144 h, application rate of 200 ppm, 6 days after infestation, read-out: control in at least one of the three categories (mortality, anti-feedant effect, or growth inhibition)
Procedure, shortened: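 Artificial diet was treated with aqueous test solutions made from 10,000 ppm DMSO stocks, dried, then infested with L2 larvae (6-8 per well). Mortality, anti-feeding effect and growth inhibition were scored against untreated samples 6 days after infestation, and control was counted when any category exceeded untreated.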

SMILES	melting point [°C]	percent control (mortality or growth inhibition) at 200 ppm (Euschistus heros) [%]	percent control (mortality, anti-feedant effect or growth inhibition) at 200 ppm (Spodoptera littoralis) [%]	percent effect (mortality or growth inhibition) at 200 ppm (Plutella xylostella) [%]	mortality at 12.5 ppm (Myzus persicae [4]) [%]	percent control (mortality, anti-feedant effect or growth inhibition) at 200 ppm (Chilo suppressalis) [%]	also measured
C[C@@H](c1ncnn1-c1ncccn1)N1CCN(c2cc(OC(F)(F)C(F)F)c(Cl)cc2Cl)C1=O	207 to 209						
C[C@@H]1CN(C(=O)c2ccc(-n3ncnc3[C@H](C)NC(=O)Nc3cc(C(F)(F)F)c(Cl)cc3Cl)nc2)C[C@H](C)O1	138 to 140						
CC(NC(=O)Nc1cc(C(F)(F)F)cc(C(F)(F)F)c1)c1ncnn1-c1ncccn1 (stereo not shown)	124 to 127						
C[C@H](NC(=S)Nc1cc(Cl)cc(C(F)(F)F)c1)c1ncnn1-c1ncccn1	106 to 108						
C[C@H](NC(=O)Nc1cnc(C(F)(F)F)cc1I)c1ncnn1-c1ncccn1	183 to 186						
C[C@H](NC(=O)Nc1ccc(Br)c(Br)c1)c1nccnc1-c1ncccn1	220 to 222						
C[C@H](NC(=O)Nc1cc(Cl)c(Cl)cc1I)c1ncnn1-c1ncccn1 (stereo in doubt)	236 to 249						
C[C@H](NC(=O)Nc1ccc(F)cc1C#N)c1ncnn1-c1ncccn1 [Example P62, 1-(2-cyano-4-fluoro-phenyl)-3-[(1S)-1-(2-pyrimidin-2-yl-1,2,4-triazol-3-yl)ethyl]urea]		≥ 80					mortality at 200 ppm (Myzus persicae [1]): ≥ 80%
Cc1cccc(Cl)c1NC(=O)N[C@@H](C)c1ncnn1-c1ncccn1 [Example P71, 1-(2-chloro-6-methyl-phenyl)-3-[(1S)-1-(2-pyrimidin-2-yl-1,2,4-triazol-3-yl)ethyl]urea]							mortality at 200 ppm [2]: ≥ 80%
C[C@H](NC(=O)Nc1cc(OCc2ccc(Cl)cn2)c(Cl)cc1Cl)c1ncnn1-c1ncccn1 [Example P142, 1-[2,4-dichloro-5-[(5-chloro-2-pyridyl)methoxy]phenyl]-3-[(1S)-1-(2-pyrimidin-2-yl-1,2,4-triazol-3-yl)ethyl]urea]							mortality at 200 ppm [2]: ≥ 80%
C[C@H](NC(=O)N1CCc2cc(C(F)(F)F)ncc21)c1ncnn1-c1ncccn1 [Example P172, N-[(1S)-1-(2-pyrimidin-2-yl-1,2,4-triazol-3-yl)ethyl]-5-(trifluoromethyl)-2,3-dihydropyrrolo[2,3-c]pyridine-1-carboxamide]		≥ 80	≥ 80	≥ 80	≥ 80	≥ 80	percent control (mortality or growth inhibition) at 200 ppm (Diabrotica balteata): ≥ 80%; mortality at 200 ppm (Myzus persicae [1]): ≥ 80%; mortality at 24 ppm (Myzus persicae [3]): ≥ 80%
COC(=O)c1cc(Cl)c(Cl)cc1NC(=O)N[C@@H](C)c1ncnn1-c1ncccn1 [Example P199, methyl 4,5-dichloro-2-[[(1S)-1-(2-pyrimidin-2-yl-1,2,4-triazol-3-yl)ethyl]carbamoylamino]benzoate]							mortality at 200 ppm [2]: ≥ 80%
Cc1cc2c(cc1NC(=O)N[C@@H](C)c1ncnn1-c1ncccn1)OCC(=O)N2 [Example P208, 1-(6-methyl-3-oxo-4H-1,4-benzoxazin-7-yl)-3-[(1S)-1-(2-pyrimidin-2-yl-1,2,4-triazol-3-yl)ethyl]urea]							mortality at 200 ppm [2]: ≥ 80%
C[C@H](NC(=O)Nc1cc(OC(F)(F)Cl)c(Cl)cc1F)c1ncnn1-c1ncccn1 [Example P219, 1-[4-chloro-5-[chloro(difluoro)methoxy]-2-fluoro-phenyl]-3-[(1S)-1-(2-pyrimidin-2-yl-1,2,4-triazol-3-yl)ethyl]urea]			≥ 80	≥ 80	≥ 80	≥ 80	percent control (mortality or growth inhibition) at 200 ppm (Diabrotica balteata): ≥ 80%; mortality at 200 ppm [2]: ≥ 80%
CC(NC(=O)Nc1cnc(C(F)(F)F)cc1Cl)c1nccnc1-c1ncccn1 (stereo not shown) [Example P244, 1-[4-chloro-6-(trifluoromethyl)-3-pyridyl]-3-[1-(3-pyrimidin-2-ylpyrazin-2-yl)ethyl]urea]			≥ 80	≥ 80	≥ 80	≥ 80	mortality at 200 ppm (Myzus persicae [1]): ≥ 80%; mortality at 24 ppm (Myzus persicae [3]): ≥ 80%
C[C@H](NC(=O)N(C)c1cnc(C(F)(F)F)cc1Br)c1ncnn1-c1ncccn1 [Example P273, 1-[4-bromo-6-(trifluoromethyl)-3-pyridyl]-1-methyl-3-[(1S)-1-(2-pyrimidin-2-yl-1,2,4-triazol-3-yl)ethyl]urea]		≥ 80	≥ 80	≥ 80	≥ 80	≥ 80	mortality at 24 ppm (Myzus persicae [3]): ≥ 80%
C[C@H](NC(=O)Nc1cnc(C(F)(F)F)cc1Br)c1ncnn1-c1ncccn1 [Example P280, 1-[4-bromo-6-(trifluoromethyl)-3-pyridyl]-3-[(1S)-1-(2-pyrimidin-2-yl-1,2,4-triazol-3-yl)ethyl]urea]		≥ 80	≥ 80	≥ 80	≥ 80	≥ 80	percent control (mortality or growth inhibition) at 200 ppm (Diabrotica balteata): ≥ 80%; mortality at 200 ppm [2]: ≥ 80%
Cc1cc(C(F)(F)F)ncc1NC(=O)N[C@@H](C)c1ncnn1-c1ncccn1 [Example P328, 1-[4-methyl-6-(trifluoromethyl)-3-pyridyl]-3-[(1S)-1-(2-pyrimidin-2-yl-1,2,4-triazol-3-yl)ethyl]urea]		≥ 80			≥ 80	≥ 80	mortality at 200 ppm (Myzus persicae [1]): ≥ 80%
COc1cc(C(F)(F)F)ncc1NC(=O)N[C@@H](C)c1ncnn1-c1ncccn1 [Example P348, 1-[4-methoxy-6-(trifluoromethyl)-3-pyridyl]-3-[(1S)-1-(2-pyrimidin-2-yl-1,2,4-triazol-3-yl)ethyl]urea]		≥ 80	≥ 80		≥ 80	≥ 80	mortality at 200 ppm (Myzus persicae [1]): ≥ 80%; mortality at 24 ppm (Myzus persicae [3]): ≥ 80%
C[C@H](NC(=O)Nc1cc(F)c(Br)cc1OC(F)F)c1ncnn1-c1ncccn1 [Example P390, 1-[4-bromo-2-(difluoromethoxy)-5-fluoro-phenyl]-3-[(1S)-1-(2-pyrimidin-2-yl-1,2,4-triazol-3-yl)ethyl]urea]		≥ 80	≥ 80	≥ 80	≥ 80	≥ 80	percent control (mortality or growth inhibition) at 200 ppm (Diabrotica balteata): ≥ 80%
C[C@@H](c1ncnn1-c1ncccn1)N(C)C(=O)Nc1cnc(C(F)(F)F)cc1Cl [Example P397, 3-[4-chloro-6-(trifluoromethyl)-3-pyridyl]-1-methyl-1-[(1S)-1-(2-pyrimidin-2-yl-1,2,4-triazol-3-yl)ethyl]urea]		≥ 80		≥ 80	≥ 80	≥ 80	mortality at 24 ppm (Myzus persicae [3]): ≥ 80%
